Where a SMILES comes first, the peptide text is derived from it. [ ]: non-standard residue; d: D form. Aib = CC(C)(N)C(=O)O

The target of this experiment is human GLP-1R (Homo sapiens, UniProt P43220). In words: Peptide-receptor mediated cAMP accumulation (LANCE Ultra cAMP) in CHO-K1 cells transfected with human GLP-1R. It counts as cell-based. To be noted: hGLP1 pEC50 (cAMP mean (n = 3): 11 point curve starting at 1 nM, Table 3). On the technique in general: Changes in cAMP serve as a functional read-out for many G protein-coupled receptors.
Chain of human GLP-1R (P43220 24-463): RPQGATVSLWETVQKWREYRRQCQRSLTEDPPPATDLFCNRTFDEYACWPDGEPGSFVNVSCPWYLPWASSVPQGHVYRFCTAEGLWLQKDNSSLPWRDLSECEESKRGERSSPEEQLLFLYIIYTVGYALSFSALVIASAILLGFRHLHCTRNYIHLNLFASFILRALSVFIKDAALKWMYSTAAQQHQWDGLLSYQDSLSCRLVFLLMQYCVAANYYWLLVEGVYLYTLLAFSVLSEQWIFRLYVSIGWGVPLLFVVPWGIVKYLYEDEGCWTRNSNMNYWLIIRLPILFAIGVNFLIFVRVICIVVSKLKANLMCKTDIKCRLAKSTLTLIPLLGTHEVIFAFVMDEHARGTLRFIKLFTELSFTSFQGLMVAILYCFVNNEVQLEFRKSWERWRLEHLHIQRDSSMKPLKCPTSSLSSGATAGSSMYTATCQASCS

With `CC(C)C[C@H](NC(=O)[C@H](Cc1ccc(O)cc1)NC(=O)[C@H](CCCCN)NC(=O)[C@H](CO)NC(=O)[C@H](Cc1ccc(O)cc1)NC(=O)[C@H](CC(=O)O)NC(=O)[C@H](CO)NC(=O)[C@@H](NC(=O)[C@H](Cc1ccccc1)NC(=O)[C@@H](NC(=O)CNC(=O)[C@H](Cc1c[nH]cn1)NC(=O)[C@H](CO)NC(=O)[C@@H](N)Cc1ccc(O)cc1)[C@@H](C)O)[C@@H](C)O)C(=O)N[C@@H](CC(=O)O)C(=O)NC(C)(C)C(=O)N[C@@H](CCCCN)C(=O)N[C@@H](CCCNC(=N)N)C(=O)N[C@@H](C)C(=O)N[C@@H](CCC(N)=O)C(=O)N[C@@H](CCC(=O)O)C(=O)N[C@@H](Cc1ccccc1)C(=O)N[C@H](C(=O)NC(C)(C)C(=O)N[C@@H](Cc1c[nH]c2ccccc12)C(=O)N[C@@H](CC(C)C)C(=O)N[C@@H](CCC(=O)O)C(=O)N[C@@H](CC(=O)O)C(=O)N[C@@H](CCC(=O)O)C(=O)N1CCC[C@H]1C(=O)N[C@@H](CCCCN)C(=O)N[C@@H](CO)C(=O)N[C@@H](CCCCN)C(=O)N[C@@H](CCC(=O)O)C(=O)N1CCC[C@H]1C(=O)N1CCC[C@H]1C(=O)N1CCC[C@H]1C(=O)N[C@@H](CO)C(N)=O)C(C)C` [Compound A65] (H-YSHGTFTSDYSKYLD[Aib]KRAQEFV[Aib]WLEDEPKSKEPPPS-NH2; N-terminus assumed), the EC50 was above 1 nM.

With `CC(C)C[C@H](NC(=O)[C@H](Cc1ccc(O)cc1)NC(=O)[C@H](CCCCN)NC(=O)[C@H](CO)NC(=O)[C@H](Cc1ccc(O)cc1)NC(=O)[C@H](CC(=O)O)NC(=O)[C@H](CO)NC(=O)[C@@H](NC(=O)[C@H](Cc1ccccc1)NC(=O)[C@@H](NC(=O)CNC(=O)[C@H](Cc1c[nH]cn1)NC(=O)[C@H](CO)NC(=O)[C@@H](N)Cc1ccc(O)cc1)[C@@H](C)O)[C@@H](C)O)C(=O)N[C@@H](CC(=O)O)C(=O)NC(C)(C)C(=O)N[C@@H](CCCCN)C(=O)N[C@@H](CCCNC(=N)N)C(=O)N[C@@H](C)C(=O)N[C@@H](CCC(N)=O)C(=O)N[C@@H](CCC(=O)O)C(=O)N[C@@H](Cc1ccccc1)C(=O)N[C@H](C(=O)NC(C)(C)C(=O)N[C@@H](Cc1c[nH]c2ccccc12)C(=O)N[C@@H](CC(C)C)C(=O)N[C@@H](CCC(=O)O)C(=O)N[C@@H](CC(=O)O)C(=O)N[C@@H](CCC(=O)O)C(=O)NCC(=O)NCC(=O)N1CCC[C@H]1C(=O)N[C@@H](CO)C(=O)N[C@@H](CO)C(=O)NCC(=O)N[C@@H](C)C(=O)N1CCC[C@H]1C(=O)N1CCC[C@H]1C(=O)N1CCC[C@H]1C(=O)N[C@@H](CO)C(=O)O)C(C)C` [Compound A27] (H-YSHGTFTSDYSKYLD[Aib]KRAQEFV[Aib]WLEDEGGPSSGAPPPS-OH; N-terminus assumed), the EC50 was above 1 nM.

Turning to `CC(C)C[C@H](NC(=O)[C@H](Cc1c[nH]c2ccccc12)NC(=O)[C@H](CCCCN)NC(=O)[C@H](CO)NC(=O)[C@H](Cc1ccc(O)cc1)NC(=O)[C@H](CC(=O)O)NC(=O)[C@H](CO)NC(=O)[C@@H](NC(=O)[C@H](Cc1ccccc1)NC(=O)[C@@H](NC(=O)CNC(=O)[C@H](Cc1c[nH]cn1)NC(=O)[C@H](CO)NC(=O)[C@@H](N)Cc1ccc(O)cc1)[C@@H](C)O)[C@@H](C)O)C(=O)N[C@@H](CC(=O)O)C(=O)N[C@@H](CO)C(=O)N[C@@H](C)C(=O)N[C@@H](CCCNC(=N)N)C(=O)N[C@@H](C)C(=O)N[C@@H](CCC(N)=O)C(=O)N[C@@H](CCC(=O)O)C(=O)N[C@@H](Cc1ccccc1)C(=O)N[C@H](C(=O)N[C@@H](CCCCN)C(=O)N[C@@H](Cc1c[nH]c2ccccc12)C(=O)N[C@@H](CC(C)C)C(=O)N[C@@H](CCC(=O)O)C(=O)N[C@@H](CC(=O)O)C(=O)N[C@@H](CCC(=O)O)C(=O)N1CCC[C@H]1C(=O)N[C@@H](CO)C(=O)N[C@@H](CO)C(=O)NCC(=O)N[C@@H](C)C(=O)N1CCC[C@H]1C(=O)N1CCC[C@H]1C(=O)N1CCC[C@H]1C(=O)N[C@@H](CO)C(=O)O)C(C)C` [Compound A38] (H-YSHGTFTSDYSKWLDSARAQEFVKWLEDEPSSGAPPPS-OH; N-terminus assumed), the concentration giving a half-maximal response (EC50) was above 1 nM.

The compound `CC(C)C[C@H](NC(=O)[C@H](Cc1ccc(O)cc1)NC(=O)[C@H](CCCCN)NC(=O)[C@H](CO)NC(=O)[C@H](Cc1ccc(O)cc1)NC(=O)[C@H](CC(=O)O)NC(=O)[C@H](CO)NC(=O)[C@@H](NC(=O)[C@H](Cc1ccccc1)NC(=O)[C@@H](NC(=O)CNC(=O)[C@H](Cc1c[nH]cn1)NC(=O)[C@H](CO)NC(=O)[C@@H](N)Cc1ccc(O)cc1)[C@@H](C)O)[C@@H](C)O)C(=O)N[C@@H](CC(=O)O)C(=O)N[C@@H](CO)C(=O)N[C@@H](C)C(=O)N[C@@H](CCCNC(=N)N)C(=O)N[C@@H](C)C(=O)N[C@@H](CCC(N)=O)C(=O)N[C@@H](CCC(=O)O)C(=O)N[C@@H](Cc1ccccc1)C(=O)N[C@H](C(=O)N[C@@H](CCCCN)C(=O)N[C@@H](Cc1c[nH]c2ccccc12)C(=O)N[C@@H](CC(C)C)C(=O)N[C@@H](CCC(=O)O)C(=O)N[C@@H](CC(=O)O)C(=O)N[C@@H](CCC(=O)O)C(=O)N1CCC[C@H]1C(=O)N[C@@H](CO)C(=O)N[C@@H](CO)C(=O)NCC(=O)N[C@@H](C)C(=O)N1CCC[C@H]1C(=O)N1CCC[C@H]1C(=O)N1CCC[C@H]1C(=O)N[C@@H](CO)C(=O)O)C(C)C` [Compound A37] (H-YSHGTFTSDYSKYLDSARAQEFVKWLEDEPSSGAPPPS-OH; N-terminus assumed) displayed an EC50 above 1 nM.

Take `CC(C)C[C@H](NC(=O)[C@H](Cc1ccc(O)cc1)NC(=O)[C@H](CCCCN)NC(=O)[C@H](CO)NC(=O)[C@H](Cc1ccc(O)cc1)NC(=O)[C@H](CC(=O)O)NC(=O)[C@H](CO)NC(=O)[C@@H](NC(=O)[C@H](Cc1ccccc1)NC(=O)[C@@H](NC(=O)CNC(=O)[C@H](Cc1c[nH]cn1)NC(=O)[C@H](CO)NC(=O)[C@@H](N)Cc1ccc(O)cc1)[C@@H](C)O)[C@@H](C)O)C(=O)N[C@@H](CC(=O)O)C(=O)NC(C)(C)C(=O)N[C@@H](CCCCN)C(=O)N[C@@H](CCCNC(=N)N)C(=O)N[C@@H](C)C(=O)N[C@@H](CCC(N)=O)C(=O)N[C@@H](CCC(=O)O)C(=O)N[C@@H](Cc1ccccc1)C(=O)N[C@H](C(=O)NC(C)(C)C(=O)N[C@@H](Cc1c[nH]c2ccccc12)C(=O)N[C@@H](CC(C)C)C(=O)N[C@@H](CCC(=O)O)C(=O)N[C@@H](CC(=O)O)C(=O)N[C@@H](CCC(=O)O)C(=O)N1CCC[C@H]1C(=O)N[C@@H](CO)C(=O)N[C@@H](CO)C(=O)NCC(=O)N[C@@H](CCCCN)C(=O)N[C@@H](CCCCN)C(=O)N1CCC[C@H]1C(=O)N1CCC[C@H]1C(=O)N[C@@H](CO)C(=O)O)C(C)C` [Compound A88] (H-YSHGTFTSDYSKYLD[Aib]KRAQEFV[Aib]WLEDEPSSGKKPPS-OH): the EC50 was above 1 nM.

On to `CC(C)C[C@H](NC(=O)[C@H](Cc1c[nH]c2ccccc12)NC(=O)[C@H](CCCCN)NC(=O)[C@H](CO)NC(=O)[C@H](Cc1ccc(O)cc1)NC(=O)[C@H](CC(=O)O)NC(=O)[C@H](CO)NC(=O)[C@@H](NC(=O)[C@H](Cc1ccccc1)NC(=O)[C@@H](NC(=O)CNC(=O)[C@H](Cc1c[nH]cn1)NC(=O)[C@@H](NC(=O)[C@@H](N)Cc1ccc(O)cc1)[C@@H](C)O)[C@@H](C)O)[C@@H](C)O)C(=O)N[C@@H](CC(=O)O)C(=O)NC(C)(C)C(=O)N[C@@H](CCCCN)C(=O)N[C@@H](CCCNC(=N)N)C(=O)N[C@@H](C)C(=O)N[C@@H](CCC(N)=O)C(=O)N[C@@H](CCC(=O)O)C(=O)N[C@@H](Cc1ccccc1)C(=O)N[C@H](C(=O)NC(C)(C)C(=O)N[C@@H](Cc1c[nH]c2ccccc12)C(=O)N[C@@H](CC(C)C)C(=O)N[C@@H](CCC(=O)O)C(=O)N[C@@H](CC(=O)O)C(=O)N[C@@H](CCC(=O)O)C(=O)N1CCC[C@H]1C(=O)N[C@@H](CO)C(=O)N[C@@H](CO)C(=O)NCC(=O)N[C@@H](C)C(=O)N1CCC[C@H]1C(=O)N1CCC[C@H]1C(=O)N1CCC[C@H]1C(=O)N[C@@H](CO)C(=O)O)C(C)C` [Compound A32] (H-YTHGTFTSDYSKWLD[Aib]KRAQEFV[Aib]WLEDEPSSGAPPPS-OH; N-terminus assumed), for which the EC50 was above 1 nM.

The compound `CC(C)C[C@H](NC(=O)[C@H](Cc1ccc(O)cc1)NC(=O)[C@H](CCCCN)NC(=O)[C@H](CO)NC(=O)[C@H](Cc1ccc(O)cc1)NC(=O)[C@H](CC(=O)O)NC(=O)[C@H](CO)NC(=O)[C@@H](NC(=O)[C@H](Cc1ccccc1)NC(=O)[C@@H](NC(=O)CNC(=O)[C@H](Cc1c[nH]cn1)NC(=O)[C@H](CO)NC(=O)[C@@H](N)Cc1ccc(O)cc1)[C@@H](C)O)[C@@H](C)O)C(=O)N[C@@H](CC(=O)O)C(=O)NC(C)(C)C(=O)N[C@@H](CCCCN)C(=O)N[C@@H](CCCNC(=N)N)C(=O)N[C@@H](C)C(=O)N[C@@H](CCC(N)=O)C(=O)N[C@@H](CCC(=O)O)C(=O)N[C@@H](Cc1ccccc1)C(=O)N[C@H](C(=O)NC(C)(C)C(=O)N[C@@H](Cc1c[nH]c2ccccc12)C(=O)N[C@@H](CC(C)C)C(=O)N[C@@H](CCC(=O)O)C(=O)N[C@@H](CC(=O)O)C(=O)N[C@@H](CCC(=O)O)C(=O)N[C@@H](CCCCN)C(=O)N[C@@H](CO)C(=O)N[C@@H](CO)C(=O)NCC(=O)N[C@@H](CCCCN)C(=O)N1CCC[C@H]1C(=O)N1CCC[C@H]1C(=O)N1CCC[C@H]1C(=O)N[C@@H](CO)C(=O)O)C(C)C` [Compound A87] (H-YSHGTFTSDYSKYLD[Aib]KRAQEFV[Aib]WLEDEKSSGKPPPS-OH; N-terminus assumed) yielded an EC50 above 1 nM.

Compound `CC(C)C[C@H](NC(=O)[C@H](Cc1ccc(O)cc1)NC(=O)[C@H](CCCCN)NC(=O)[C@H](CO)NC(=O)[C@H](Cc1ccc(O)cc1)NC(=O)[C@H](CC(=O)O)NC(=O)[C@H](CO)NC(=O)[C@@H](NC(=O)[C@H](Cc1ccccc1)NC(=O)[C@@H](NC(=O)CNC(=O)[C@H](Cc1c[nH]cn1)NC(=O)[C@H](CO)NC(=O)[C@@H](N)Cc1ccc(O)cc1)[C@@H](C)O)[C@@H](C)O)C(=O)N[C@@H](CC(=O)O)C(=O)NC(C)(C)C(=O)N[C@@H](CCCCN)C(=O)N[C@@H](CCCNC(=N)N)C(=O)N[C@@H](C)C(=O)N[C@@H](CCC(N)=O)C(=O)N[C@@H](CCC(=O)O)C(=O)N[C@@H](Cc1ccccc1)C(=O)N[C@H](C(=O)NC(C)(C)C(=O)N[C@@H](Cc1c[nH]cn1)C(=O)N[C@@H](CC(C)C)C(=O)N[C@@H](CCC(=O)O)C(=O)N[C@@H](CC(=O)O)C(=O)N[C@@H](CCC(=O)O)C(=O)N1CCC[C@H]1C(=O)N[C@@H](CO)C(=O)N[C@@H](CO)C(=O)NCC(=O)N[C@@H](CCCCN)C(=O)N1CCC[C@H]1C(=O)N1CCC[C@H]1C(=O)N1CCC[C@H]1C(=O)N[C@@H](CO)C(=O)O)C(C)C` [Compound A89] (H-YSHGTFTSDYSKYLD[Aib]KRAQEFV[Aib]HLEDEPSSGKPPPS-OH; N-terminus assumed) registered an EC50 above 1 nM.

As a reminder, the EC50 is the midpoint of the concentration-response curve. Higher therefore signals a need for much substance.

The values are drawn from patent US20240239861A1, “GLUCAGON-RECEPTOR SELECTIVE POLYPEPTIDES AND METHODS OF USE THEREOF” (i2O Therapeutics, Inc., priority 2016, published 2024).
